Reference: patent US7314861B2, “Melanin-concentrating hormone analogs” (priority 2001, dated 2008)
Where a SMILES comes first, the peptide text is derived from it. Bridges are numbered along the chain shown (N, C = ends). [ ]: non-standard residue; d: D form. hArg = N=C(N)NCCCC[C@H](N)C(=O)O

Key:
human MCH-1R [1] = biological target: T1, human MCH-1R (Homo sapiens, UniProt Q99705); experiment: Aequorin bioluminescence functional assay, MCH-1R; conditions: for MCH-1R Activation %: % Activation at 10 μM, aequorin functional assay
Procedure: (§1) The aequorin bioluminescence assay can be used to measure the activity of G protein-coupled receptors that couple through the Gα protein subunit family consisting of Gq and G11. Such coupling leads to phospholipase C activation, intracellular calcium mobilization and protein kinase C activation.
(§2) Following approximately 40 hours of expression the apo-aequorin in the cells was charged for 4 hours with coelenterazine (10 μM) under reducing conditions (300 μM reduced glutathione) in ECB buffer (140 mM NaCl, 20 mM KCl, 20 mM HEPES-NaOH [pH=7.4], 5 mM glucose, 1 mM MgCl2, 1 mM CaCl2, 0.1 mg/ml bovine serum albumin).
(§3) The cells were harvested, washed once in ECB medium and resuspended to 500,000 cells/ml. 100 μl of cell suspension (corresponding to 5×10^4 cells) was then injected into the test plate containing MCH or MCH analogs, and the integrated light emission was recorded over 30 seconds, in 0.5 second units. 20 μL of lysis buffer (0.1% final Triton X-100 concentration) was then injected and the integrated light emission recorded over 10 seconds, in 0.5 second units. The “fractional response” values for each well were calculated by taking the ratio of the integrated response to the initial challenge to the total integrated luminescence including the Triton X-100 lysis response.

human MCH-R2 = human MCH-R2 (Homo sapiens, UniProt Q969V1); experiment: Aequorin bioluminescence functional assay, MCH-2R; conditions: for EC50: MCH-2R EC50 (nM); for EC50 / MCH-2R Activation %: aequorin functional assay; for MCH-2R Activation %: % Activation at 10 μM; for selective activity at MCH-2R over MCH-1R: greater binding and/or activation at MCH-2R than at MCH-1R
Procedure: as §1, §2, §3

human MCH-2R = human MCH-2R (Homo sapiens, UniProt Q969V1); experiment: Radiolabeled MCH-R binding assay (SPA based), MCH-2R; conditions: MCH-2R IC50 (nM)
Procedure: (§4) Cell membranes were prepared on ice. Each T-75 flask was rinsed twice with 10 ml of Enzyme-free Cell Dissociation Buffer (Specialty Media, Lavallette, N.J.), and the cell monolayer was detached in an additional 10 ml of Enzyme-free Cell Dissociation Buffer by incubation at room temperature for 10 minutes. Dissociated cells were centrifuged (500×g for 10 minutes at 4° C.), resuspended in 5 ml homogenization buffer (10 mM Tris-HCl, pH 7.4, 0.01 mM Pefabloc, 10 μM phosphoramidon, 40 μg/ml bacitracin) and then homogenized using a glass homogenizer (10-15 strokes). The homogenate was centrifuged for 10 minutes (1,000×g at 4° C.). The resulting supernatant was then centrifuged at 38,700×g for 15 minutes at 4° C. Pelleted membranes were resuspended (passed through 25 gauge needle 5 times), snap-frozen on liquid nitrogen, and stored at −80° C. until use.
(§5) For the SPA-based assay, WGA-PVT beads (NEN Life Sciences Products) were resuspended in Dulbecco's PBS with calcium and magnesium (500 mg beads in 4 ml PBS). […] The suspension was mixed gently for 20 minutes, 12.3 ml of assay buffer and protease inhibitors were added (final concentration given): 2 μg/ml leupeptin, 10 μM phosphoramidon, 40 μg/ml bacitracin, 5 μg/ml aprotinin, 0.1 mM Pefabloc.
(§6) Coated beads were kept on ice until use. […] Binding reactions were allowed to proceed at room temperature for 3 hours. Quantitation was performed by scintillation counting (TopCount device).

human MCH-1R [2] = biological target: T1, human MCH-1R; experiment: Radiolabeled MCH-R binding assay (SPA based), MCH-1R
Procedure: as §4, §5, §6

[3] = Table 1, inhibition of [125I]-human MCH (Phe13, Tyr19) binding

human MCH-2R, sequence (Q969V1 whole entry): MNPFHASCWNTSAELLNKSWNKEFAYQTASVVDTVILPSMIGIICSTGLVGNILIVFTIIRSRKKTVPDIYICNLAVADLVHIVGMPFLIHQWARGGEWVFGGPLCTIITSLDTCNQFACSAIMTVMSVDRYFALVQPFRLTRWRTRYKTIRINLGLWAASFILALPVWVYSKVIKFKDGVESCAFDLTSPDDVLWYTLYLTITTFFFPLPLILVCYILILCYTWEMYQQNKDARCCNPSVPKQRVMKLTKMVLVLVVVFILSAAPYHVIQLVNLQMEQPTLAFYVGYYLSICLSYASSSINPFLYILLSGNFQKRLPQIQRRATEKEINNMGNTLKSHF
human MCH-R2, sequence (Q969V1 whole entry): as above
T1 sequence (Q99705 whole entry): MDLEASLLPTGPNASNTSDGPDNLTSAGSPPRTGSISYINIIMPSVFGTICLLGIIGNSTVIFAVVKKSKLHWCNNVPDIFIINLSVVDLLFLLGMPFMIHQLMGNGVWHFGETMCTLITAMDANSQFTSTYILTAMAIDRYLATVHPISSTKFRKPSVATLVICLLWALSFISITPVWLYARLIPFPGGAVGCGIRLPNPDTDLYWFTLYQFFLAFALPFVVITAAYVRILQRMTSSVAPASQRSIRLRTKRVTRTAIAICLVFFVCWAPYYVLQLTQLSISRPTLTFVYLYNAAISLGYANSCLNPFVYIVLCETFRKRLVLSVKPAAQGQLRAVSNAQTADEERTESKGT

With `CSCC[C@@H]1NC(=O)[C@@H](NC(=O)[C@H](CCCNC(=N)N)NC(=O)[C@H](CC(C)C)NC(=O)[C@H](CCSC)NC(=O)[C@H](CC(=O)O)NC(=O)[C@H](Cc2ccccc2)NC(=O)[C@@H](N)CC(=O)O)CSSC[C@@H](C(=O)N[C@@H](Cc2c[nH]c3ccccc23)C(=O)N[C@@H](CCC(N)=O)C(=O)N[C@H](C(=O)O)C(C)C)NC(=O)[C@@H]2CCCN2C(=O)[C@H](CCCNC(=N)N)NC(=O)[C@H](Cc2ccc(O)cc2)NC(=O)[C@H](C(C)C)NC(=O)[C@H](CCCNC(=N)N)NC(=O)CNC(=O)[C@H](CC(C)C)NC1=O` [compound 1] the “MCH-1R Activation %” value (human MCH-1R [1]; Table 2) was 100%, the “MCH-1R Activation %” value (human MCH-1R [1]; Table 3) was 100% and the EC50 (human MCH-R2; Table 1, 293-AEQ17 cells) was 30.7 nM. For the same compound, the “MCH-2R Activation %” value (human MCH-R2; Table 2) was 100%, the “MCH-2R Activation %” value (human MCH-R2; Table 3) was 100% and the IC50 (human MCH-2R; [3]) was 0.5 nM. It also gave an IC50 (human MCH-2R; Table 2) of 0.5 nM and an IC50 (human MCH-2R; Table 3) of 0.9 nM.

With `CC(=O)N[C@@H](CCCNC(=N)N)C(=O)N[C@H]1CSSC[C@@H](C(N)=O)NC(=O)[C@@H]2CCCN2C(=O)[C@H](CCCNC(=N)N)NC(=O)[C@H](Cc2ccc(O)cc2)NC(=O)[C@H](C(C)C)NC(=O)[C@H](CCCNC(=N)N)NC(=O)CNC(=O)[C@H](CC(C)C)NC(=O)[C@H](C)NC1=O` [compound 4] (Ac-RCALGRVYRPC-NH2; disulfide 2-11) the IC50 (human MCH-1R [2]) was 15 nM, the “MCH-1R Activation %” value (human MCH-1R [1]; Table 1) was 42% and the EC50 (human MCH-R2; Table 1, 293-AEQ17 cells) was 12 nM. The “MCH-2R Activation %” value (human MCH-R2; Table 1) was 104% and the “selective activity at MCH-2R over MCH-1R” value (human MCH-R2) was “selectively active”.

For `CSCC[C@@H]1NC(=O)[C@@H](NC(=O)[C@H](CCCNC(=N)N)NC(C)=O)CSSC[C@@H](C(N)=O)NC(=O)[C@@H]2CCCN2C(=O)[C@H](CCCNC(=N)N)NC(=O)[C@H](Cc2ccc(O)cc2)NC(=O)[C@H](C(C)C)NC(=O)[C@H](CCCNC(=N)N)NC(=O)[C@@H](CC(N)=O)NC(=O)[C@H](CC(C)C)NC1=O` [compound 18], the “MCH-1R Activation %” value (human MCH-1R [1]; Table 1) was 39%, the EC50 (human MCH-R2; Table 1, 293-AEQ17 cells) was 24 nM and the “MCH-2R Activation %” value (human MCH-R2; Table 1) was 106%. The “selective activity at MCH-2R over MCH-1R” value (human MCH-R2) was “selectively active” and the IC50 (human MCH-2R; [3]) was 2.3 nM.

With `CSCC[C@@H]1NC(=O)[C@@H](NC(=O)[C@H](CCCNC(=N)N)NC(C)=O)CSSC[C@@H](C(N)=O)NC(=O)[C@@H]2CCCN2C(=O)[C@H](CCCNC(=N)N)NC(=O)[C@H](Cc2ccc(O)cc2)NC(=O)[C@H](C(C)C)NC(=O)[C@H](CCCNC(=N)N)NC(=O)[C@@H](CO)NC(=O)[C@H](CC(C)C)NC1=O` [compound 19] the IC50 (human MCH-1R [2]) was 31 nM, the “MCH-1R Activation %” value (human MCH-1R [1]; Table 1) was 47% and the “MCH-2R Activation %” value (human MCH-R2; Table 1) was 113%. For the same compound, the “selective activity at MCH-2R over MCH-1R” value (human MCH-R2) was “selectively active”.

`CSCC[C@@H]1NC(=O)[C@@H](NC(=O)[C@H](CCCNC(=N)N)NC(C)=O)CSSC[C@@H](C(N)=O)NC(=O)[C@@H]2CCCN2C(=O)[C@H](CCCNC(=N)N)NC(=O)[C@H](Cc2ccc(O)cc2)NC(=O)[C@H](C(C)C)NC(=O)[C@H](C)NC(=O)CNC(=O)[C@H](CC(C)C)NC1=O` [compound 23] (Ac-RCMLGAVYRPC-NH2; disulfide 2-11) showed an IC50 (human MCH-1R [2]) greater than 1000 nM, an EC50 (human MCH-1R [1]) greater than 10000 nM and an EC50 (human MCH-R2; Table 1, 293-AEQ17 cells) greater than 1000 nM. The “MCH-2R Activation %” value (human MCH-R2; Table 1) was 36% and the “selective activity at MCH-2R over MCH-1R” value (human MCH-R2) was “selectively active”.

`CCCC[C@@H]1NC(=O)CNC(=O)[C@H](CC(C)C)NC(=O)[C@H](CCSC)NC(=O)[C@@H](NC(=O)[C@H](CCCNC(=N)N)NC(C)=O)CSSC[C@@H](C(N)=O)NC(=O)[C@@H]2CCCN2C(=O)[C@H](CCCNC(=N)N)NC(=O)[C@H](Cc2ccc(O)cc2)NC(=O)[C@H](C(C)C)NC1=O` [compound 26] was tested, and the EC50 (human MCH-1R [1]) was greater than 1000 nM, the “MCH-2R Activation %” value (human MCH-R2; Table 1) was 34% and the “selective activity at MCH-2R over MCH-1R” value (human MCH-R2) was “selectively active”. For the same compound, the IC50 (human MCH-2R; [3]) was 9 nM.

For `CSCC[C@@H]1NC(=O)[C@@H](NC(=O)[C@H](CCCNC(=N)N)NC(C)=O)CSSC[C@@H](C(N)=O)NC(=O)[C@@H]2CCCN2C(=O)[C@H](CCCNC(=N)N)NC(=O)[C@H](Cc2ccccc2)NC(=O)[C@H](C(C)C)NC(=O)[C@H](CCCNC(=N)N)NC(=O)CNC(=O)[C@H](CC(C)C)NC1=O` [compound 27], the “MCH-1R Activation %” value (human MCH-1R [1]; Table 1) was 96%, the EC50 (human MCH-R2; Table 1, 293-AEQ17 cells) was 12 nM and the “MCH-2R Activation %” value (human MCH-R2; Table 1) was 94%. The IC50 (human MCH-2R; [3]) was 1.5 nM.

With `CSCC[C@@H]1NC(=O)[C@@H](NC(=O)[C@H](CCCNC(=N)N)NC(C)=O)CSSC[C@@H](C(N)=O)NC(=O)[C@@H]2CCCN2C(=O)[C@H](CCCNC(=N)N)NC(=O)[C@H](Cc2ccc(O)cc2)NC(=O)[C@H](C(C)C)NC(=O)[C@H](CCCCNC(=N)N)NC(=O)[C@@H](C)NC(=O)[C@H](CC(C)C)NC1=O` [compound 36] (Ac-RCML[dA][hArg]VYRPC-NH2; disulfide 2-11) the EC50 (human MCH-1R [1]) was greater than 10000 nM, the “MCH-1R Activation %” value (human MCH-1R [1]; Table 1) was 0.1% and the EC50 (human MCH-R2; Table 1, 293-AEQ17 cells) was 19 nM. The “MCH-2R Activation %” value (human MCH-R2; Table 1) was 74%, the “selective activity at MCH-2R over MCH-1R” value (human MCH-R2) was “selectively active” and the IC50 (human MCH-2R; [3]) was 0.9 nM.

For `CSCC[C@H](NC(=O)[C@H](CC(=O)O)NC(=O)[C@H](Cc1ccccc1)NC(=O)[C@@H](N)CC(=O)O)C(=O)N[C@@H](CC(C)C)C(=O)N[C@@H](CCCNC(=N)N)C(=O)N[C@H]1CSSC[C@@H](C(=O)N[C@@H](Cc2c[nH]c3ccccc23)C(=O)N[C@@H](CCC(N)=O)C(=O)N[C@H](C(=O)O)C(C)C)NC(=O)[C@@H]2CCCN2C(=O)[C@H](CCCNC(=N)N)NC(=O)[C@H](Cc2ccc(O)cc2)NC(=O)[C@H](C(C)C)NC(=O)[C@H](CCCNC(=N)N)NC(=O)CNC(=O)[C@H](CC(C)C)NC(=O)[C@H](C)NC1=O` [compound 47] (H-DFDMLRCALGRVYRPCWQV-OH; disulfide 7-16; N-terminus and C-terminus assumed), the “MCH-1R Activation %” value (human MCH-1R [1]; Table 3) was 56%, the “MCH-2R Activation %” value (human MCH-R2; Table 3) was 94% and the IC50 (human MCH-2R; Table 3) was 40 nM.

For `CSCC[C@@H]1NC(=O)[C@@H](NC(=O)[C@H](CCCNC(=N)N)NC(=O)[C@H](CC(C)C)NC(=O)[C@H](CCSC)NC(=O)[C@H](CC(=O)O)NC(=O)[C@H](Cc2ccccc2)NC(=O)[C@@H](N)CC(=O)O)CSSC[C@@H](C(=O)N[C@@H](Cc2c[nH]c3ccccc23)C(=O)N[C@@H](CCC(N)=O)C(=O)N[C@H](C(=O)O)C(C)C)NC(=O)[C@@H]2CCCN2C(=O)[C@H](CCCNC(=N)N)NC(=O)[C@H](C)NC(=O)[C@H](C(C)C)NC(=O)[C@H](CCCNC(=N)N)NC(=O)CNC(=O)[C@H](CC(C)C)NC1=O` [compound 51] (H-DFDMLRCMLGRVARPCWQV-OH; disulfide 7-16; N-terminus and C-terminus assumed), the “MCH-1R Activation %” value (human MCH-1R [1]; Table 3) was 20% and the EC50 (human MCH-R2; Table 3) was greater than 1000 nM.

For `CSCC[C@@H]1NC(=O)[C@@H](NC(=O)[C@H](CCCNC(=N)N)NC(=O)[C@H](CC(C)C)NC(=O)[C@H](CCSC)NC(=O)[C@H](CC(=O)O)NC(=O)[C@H](Cc2ccccc2)NC(=O)[C@@H](N)CC(=O)O)CSSC[C@@H](C(=O)N[C@@H](Cc2c[nH]c3ccccc23)C(=O)N[C@@H](CCC(N)=O)C(=O)N[C@H](C(=O)O)C(C)C)NC(=O)[C@H](C)NC(=O)[C@H](CCCNC(=N)N)NC(=O)[C@H](Cc2ccc(O)cc2)NC(=O)[C@H](C(C)C)NC(=O)[C@H](CCCNC(=N)N)NC(=O)CNC(=O)[C@H](CC(C)C)NC1=O` [compound 53] (H-DFDMLRCMLGRVYRACWQV-OH; disulfide 7-16; N-terminus and C-terminus assumed), the “MCH-1R Activation %” value (human MCH-1R [1]; Table 3) was 99%, the “MCH-2R Activation %” value (human MCH-R2; Table 3) was 96% and the IC50 (human MCH-2R; Table 3) was 19 nM.

For `CSCC[C@@H]1NC(=O)[C@@H](NC(=O)[C@H](CCCNC(=N)N)NC(=O)[C@H](CC(C)C)NC(=O)[C@H](CCSC)NC(=O)[C@H](CC(=O)O)NC(=O)[C@H](Cc2ccccc2)NC(=O)[C@@H](N)CC(=O)O)CSSC[C@@H](C(=O)N[C@@H](C)C(=O)N[C@@H](CCC(N)=O)C(=O)N[C@H](C(=O)O)C(C)C)NC(=O)[C@@H]2CCCN2C(=O)[C@H](CCCNC(=N)N)NC(=O)[C@H](Cc2ccc(O)cc2)NC(=O)[C@H](C(C)C)NC(=O)[C@H](CCCNC(=N)N)NC(=O)CNC(=O)[C@H](CC(C)C)NC1=O` [compound 54] (H-DFDMLRCMLGRVYRPCAQV-OH; disulfide 7-16; N-terminus and C-terminus assumed), the “MCH-1R Activation %” value (human MCH-1R [1]; Table 3) was 100% and the “MCH-2R Activation %” value (human MCH-R2; Table 3) was 95%.

For `CSCC[C@@H]1NC(=O)[C@@H](NC(=O)[C@H](CCCNC(=N)N)NC(=O)[C@H](CC(C)C)NC(=O)[C@H](CCSC)NC(=O)[C@H](CC(=O)O)NC(=O)[C@H](Cc2ccccc2)NC(=O)[C@@H](N)CC(=O)O)CSSC[C@@H](C(=O)N[C@@H](Cc2c[nH]c3ccccc23)C(=O)N[C@@H](C)C(=O)N[C@H](C(=O)O)C(C)C)NC(=O)[C@@H]2CCCN2C(=O)[C@H](CCCNC(=N)N)NC(=O)[C@H](Cc2ccc(O)cc2)NC(=O)[C@H](C(C)C)NC(=O)[C@H](CCCNC(=N)N)NC(=O)CNC(=O)[C@H](CC(C)C)NC1=O` [compound 55] (H-DFDMLRCMLGRVYRPCWAV-OH; disulfide 7-16; N-terminus and C-terminus assumed), the “MCH-1R Activation %” value (human MCH-1R [1]; Table 3) was 99%, the “MCH-2R Activation %” value (human MCH-R2; Table 3) was 97% and the IC50 (human MCH-2R; Table 3) was 9.5 nM.

`CSCC[C@@H]1NC(=O)[C@@H](NC(=O)[C@H](CCCNC(=N)N)NC(=O)[C@H](CC(C)C)NC(=O)[C@H](CCSC)NC(=O)[C@H](CC(=O)O)NC(=O)[C@H](Cc2ccccc2)NC(=O)[C@@H](N)CC(=O)O)CSSC[C@@H](C(=O)N[C@@H](Cc2c[nH]c3ccccc23)C(=O)N[C@@H](CCC(N)=O)C(=O)N[C@@H](C)C(=O)O)NC(=O)[C@@H]2CCCN2C(=O)[C@H](CCCNC(=N)N)NC(=O)[C@H](Cc2ccc(O)cc2)NC(=O)[C@H](C(C)C)NC(=O)[C@H](CCCNC(=N)N)NC(=O)CNC(=O)[C@H](CC(C)C)NC1=O` [compound 56] (H-DFDMLRCMLGRVYRPCWQA-OH; disulfide 7-16; N-terminus and C-terminus assumed) was tested, and the “MCH-1R Activation %” value (human MCH-1R [1]; Table 3) was 100% and the “MCH-2R Activation %” value (human MCH-R2; Table 3) was 99%.
